Experimental data from US20140329863A1 (priority 2011, published 2014).
In brackets after ≈: the same amount, converted by molar mass. Like-named read-outs stand apart in the source and are kept apart here.

Columns and labels:
ScN2a-c13 cells = test: cells; assay type: cell-based; settings: Mus musculus; N=3; read-out: EC50 by calcein for cell viability
[1] = system: PrP^Sc in dividing ScN2a-cl3 cells; assay type: cell-based, mouse; set-up: Dividing ELISA pEC50 (μM) 1st Expt. / Dividing ELISA pEC50 (μM) 2nd Expt. / Dividing ELISA pEC50 (μM) 3rd Expt. / Dividing ELISA pEC50 (μM) Mean: unit not given here
[2] = system: PrP^Sc in dividing ScN2a-c13 cells; settings: read-out: EC50 (ELISA), reduction of PrP^Sc load; dividing ScN2a-c13 cells
physchem [3] = test: physchem
in vitro = settings: dog, MDCK-MDR1
P-gp (MDR1) = test: in vitro; settings: dog, MDCK-MDR1
[4] = Toleration studies in mice
[5] = Hepatic microsomal stability, rat
[6] = Hepatic microsomal stability, mouse; settings: for half-life at 1 μM: pH 7.4
[7] = Hepatic microsomal stability, human; settings: for half-life at 1 μM: human, pH 7.4
[8] = Single-dose pharmacokinetics in FVB mice (oral gavage, IV)
[9] = Multidose (three-day) pharmacokinetics in liquid diet in FVB mice; settings: FVB, mouse, in vivo, three-day dosing in liquid diet
PrP^C in T98G cells = assay type: cell-based, human; settings: read-out: EC50 (μM) ELISA potency, PrP^C in T98G cells
PrP^C in N2a-c13 cells = assay type: cell-based, mouse; settings: read-out: EC50 (μM) ELISA in N2a-cl3 cells (value in parentheses)
[10] = pH 7.4
physchem [11] = test: physchem; remark: listed apart in the source
[12] = system: MDCK-MDR^1 cells (P-glycoprotein); test: Bidirectional MDCK-MDR1 cell permeability; assay type: in vitro ADME, canine
Experimental: MDCK-MDR^1 cells were grown to confluence for 5-10 days on 1-μm filters in 24-well plates {Hilgers, 1990}. Aliquots of DMSO stocks were diluted into Hank's balanced salt solution (HBSS), pH 7.4, containing […] to give 10-μM solute concentration. The solute containing donor solutions were transferred to either the apical or basolateral chamber of the permeability diffusion apparatus. Receiver solutions consisted of HBSS (pH 7.4) containing 25 mM HEPES+0.05% PS80. Sequential samples of transported solute were taken at 20-min intervals using an automated liquid handling platform. The concentration of transported solute during each sampling interval was determined by HPLC/UV/MS. Permeability coefficients were calculated for each sampling interval. The average and standard deviation from the intervals are reported. Mass balance in the system was ascertained by comparing the sum of total transported solute and remaining donor solute with the starting mass of solute and is expressed as a percentage of donor solute at time zero. […] In the event of mass balance less than 70%, the cell monolayers were extracted with ACN and analyzed for the solute of interest. Determinations were conducted in duplicate.

[13] = system: PrP^Sc in nondividing ScN2a-cl3 cells; assay type: cell-based, mouse; settings: read-out: Non-Dividing ELISA EC50 (μM) Mean (n = 3); ScN2a-c13 non-dividing cells; mean n = 3
[14] = […]
N2a-cl3 cells = test: cells; settings: Mus musculus, N2a-cl3, read-out: Dividing Calcein EC50 (μM) Mean (n = 3)
MDCK-MDR1 cells = test: Permeability in MDCK-MDR1 cells; settings: MDR1-MDCK cell monolayers; for Permeability PA→B: apical to basal; for Permeability PB→A: basal to apical
[15] = not given; remark: listed apart in the source
[16] = ScN2a-cl3 dividing cells, 1st determination
[17] = ScN2a-cl3 dividing cells, 2nd determination
[18] = ScN2a-cl3 dividing cells, 3rd determination
[19] = ScN2a-cl3 dividing cells, mean of three determinations
[20] = read-out: Antiprion activity ScN2a-cl3 EC50, ScN2a-cl3 cells
[21] = read-out: Dividing ELISA EC50 (μM) 1st Expt., ScN2a-cl3 dividing cells, 1st determination
[22] = read-out: Dividing ELISA EC50 (μM) 2nd Expt., ScN2a-cl3 dividing cells, 2nd determination
[23] = read-out: Dividing ELISA EC50 (μM) 3rd Expt., ScN2a-cl3 dividing cells, 3rd determination
[24] = read-out: Dividing ELISA EC50 (μM) Mean, ScN2a-cl3 dividing cells, mean of three determinations

## Cc1cccc(Nc2nc(-c3cc4ccccc4o3)cs2)n1 [IND22, (4-Benzofuran-2-yl-thiazol-2-yl)-(6-methyl-pyridin-2-yl)-amine]
ScN2a-c13 cells
  EC50: > 10000 nM
[1]; AMT analogs tested for potency
  EC50: 1.46 µM
[1]; Table 29, 2-AMT analogs tested for potency, usually n = 3 or more
  EC50: 1.46 µM
[2]
  EC50: 1460 nM
fasted-state simulated intestinal fluid
  solubility in FaSSIF (in words): higher solubility
pH 2 (HCl) buffer
  solubility at pH 2.0 (in words): higher solubility
Physchem [3]; FaSSIF
  solubility: 59 µM (≈ 18.1 µg/mL)
Physchem [3]; cell culture media, plasma or biological fluid
  solubility: 20 µM (≈ 6.15 µg/mL)
Physchem [3]; pH 2 (HCl) buffer, pH 2, simulated gastric fluid
  solubility: 12 µM (≈ 3.69 µg/mL)
Physchem [3]; pH 7.4 (phosphate) buffer, pH 7.4, aqueous buffer
  solubility: < 1 µM
In vitro
  Papp A→B: 9.5 ×10⁻⁶ cm/s
  Papp B→A: 8.4 ×10⁻⁶ cm/s
P-gp (MDR1)
  efflux ratio: 0.9
[4]; 210 mg/kg/day for 14 days, mice
  Toleration: well tolerated
[4]; long-term dosing in mice
  Earliest deaths in treated mice: 59 days
[5]; Sprague-Dawley, rat, […], pH 7.4
  half-life at 1 μM: > 60 min
[5]; […], 60-min incubation
  % remaining after a 60-min incubation, Rat: 64%
[5]; rat microsomes
  Hepatic Extraction Ratio Rat: 0.4
[6]; CD-1, mouse, liver microsomes
  half-life at 1 μM: 49 min
[6]; CD-1, mouse, mouse liver microsomes
  half-life at 1 μM: 49 min
[6]; mouse
  Hepatic Extraction Ratio Mouse: 0.7
[6]; mouse liver microsomes, 60-min incubation
  % remaining after a 60-min incubation, Mouse: 40%
[6]; mouse microsomes
  Hepatic Extraction Ratio Mouse: 0.7
[7]; human liver microsomes, 60-min incubation
  % remaining after a 60-min incubation, Human: 99%
[7]; human liver microsomes
  half-life at 1 μM: > 60 min
[7]; liver microsomes
  half-life at 1 μM: > 60 min
[8]; female, FVB, mouse, brain and plasma, po, 10 mg/kg
  Kp: 0.5
[8]; female, FVB, mouse, plasma, po, 10 mg/kg
  bioavailability: 46%
[8]; single oral dose, FVB mice, brain
  Brain exposure (AUClast) ranking: highest AUC values in brain
[9]; 40 mg/kg, Brain Concentration (Css), brain
  concentration at 3 days: 1310 ± 390 nM
[9]; 40 mg/kg, Plasma Concentration (Css), plasma
  concentration at 3 days: 1490 ± 150 nM
[9]; 80 mg/kg, Brain Concentration (Css), brain
  concentration at 3 days: 2700 ± 520 nM
[9]; 80 mg/kg, Plasma Concentration (Css), plasma
  concentration at 3 days: 2140 ± 580 nM
[9]; 130 mg/kg, Brain Concentration (Css), brain
  concentration at 3 days: 3740 ± 410 nM
[9]; 130 mg/kg, Plasma Concentration (Css), plasma
  concentration at 3 days: 2500 ± 670 nM
[9]; 210 mg/kg, Brain Concentration (Css), brain
  concentration at 3 days: 3230 ± 2620 nM
[9]; 210 mg/kg, Plasma Concentration (Css), plasma
  concentration at 3 days: 1980 ± 1240 nM

## COc1ccnc(Nc2nc(-c3cc(-c4ccccc4)no3)cs2)c1 [IND112, (4-Methoxy-pyridin-2-yl)-[4-(3-phenyl-isoxazol-5-yl)-thiazol-2-yl]-amine]
ScN2a-c13 cells
  EC50: > 10000 nM
[1]; AMT analogs tested for potency
  EC50: 0.251 µM
[2]
  EC50: 251 nM

## COc1ccc(Nc2nc(-c3cc(-c4ccccc4)no3)cs2)nc1 [IND120, (5-Methoxy-pyridin-2-yl)-[4-(3-phenyl-isoxazol-5-yl)-thiazol-2-yl]-amine]
ScN2a-c13 cells
  EC50: > 10000 nM
[1]; AMT analogs tested for potency
  EC50: 0.229 µM
[2]
  EC50: 229 nM

## COc1cc(OC)cc(C(=O)Nc2ccc(I)cn2)c1 [IND85671]
PrP^C in T98G cells
  EC50: 1.1 µM
PrP^C in N2a-c13 cells
  EC50: 0.863 µM

## NC(=O)c1ccccc1NC(=O)c1cccnc1N1CCCCC1 [IND87406]
PrP^C in T98G cells
  EC50: 1.12 µM
PrP^C in N2a-c13 cells
  EC50: 3.11 µM
[6]; mouse liver microsomes, predicted hepatic extraction
  Hepatic Extraction Ratio Mouse: 0.91
[6]; mouse, mouse liver microsomes
  half-life at 1 μM: 6.35 min
[7]; human liver microsomes, predicted hepatic extraction
  Hepatic Extraction Ratio Human: 0.65
[7]; human liver microsomes
  half-life at 1 μM: 37.1 min

## CCOC(=O)c1[nH]c2c(c1C)C(=O)CC(c1ccco1)C2 (stereo not shown) [IND87564]
PrP^C in T98G cells
  EC50: 0.25 µM
PrP^C in N2a-c13 cells
  EC50: 1.12 µM

## Cc1cccc(Nc2nc(-c3ccc(-c4ccc(OCC#N)nc4)cc3)cs2)n1 [IND-0116165]
[10]
  Analiza solubility (μM) pH 7.4: <0.4 μM
Physchem [11]; pH 1.2, simulated gastric fluid
  solubility: 2.2 µM (≈ 0.879 µg/mL)
Physchem [11]; pH 7.4, aqueous buffer
  solubility: < 0.4 µM

## COc1ccc(-c2csc(Nc3ccc(C(F)(F)F)cn3)n2)cc1OC [compound 12, [4-(3,4-dimethoxyphenyl)-thiazol-2-yl]-(5-trifluoromethylpyridin-2-yl)-amine]
[12]
  P-gp substrate status, absorptive vs secretory permeability: greater permeability in the absorptive direction
[1]; [16]
  Dividing ELISA pEC50 (μM) 1st Expt.: 5.53
[1]; [17]
  Dividing ELISA pEC50 (μM) 2nd Expt.: 5.69
[1]; [18]
  Dividing ELISA pEC50 (μM) 3rd Expt.: 5.58
[1]; [19]
  Dividing ELISA pEC50 (μM) Mean: 5.60
[1]; [20]
  EC50: 2.53 µM
[1]; [21]
  EC50: 2.93 µM
[1]; [22]
  EC50: 2.05 µM
[1]; [23]
  EC50: 2.62 µM
[1]; [24]
  EC50: 2.53 µM
[13]
  EC50: > 32 µM
[14]
  metabolic stability (in words): excellent stability
N2a-cl3 cells
  EC50: > 32 µM
MDCK-MDR1 cells
  Permeability PA→B: 9.4 10^−6 cm/sec
  Permeability PB→A: 8.7 10^−6 cm/sec
[5]; […]
  Microsome stability T1/2: 150 min

## COc1ccc(-c2csc(Nc3cc4ccccc4cn3)n2)cc1OC [compound 17, [4-(3,4-dimethoxyphenyl)-thiazol-2-yl]isoquinolin-3-yl-amine]
[12]
  P-gp substrate status, absorptive vs secretory permeability: greater permeability in the absorptive direction
[1]; [21]
  EC50: 0.101 µM
[13]
  EC50: > 32 µM
[14]
  metabolic stability (in words): excellent stability
N2a-cl3 cells
  EC50: > 32 µM
[5]; […]
  Microsome stability T1/2: 83 min

## COc1ccc(-c2csc(Nc3ccc4ccccc4n3)n2)cc1OC [compound 18, [4-(3,4-dimethoxyphenyl)-thiazol-2-yl]-quinolin-2-yl-amine]
[12]
  P-gp substrate status, absorptive vs secretory permeability: greater permeability in the absorptive direction
[1]; [16]
  Dividing ELISA pEC50 (μM) 1st Expt.: 6.31
[1]; [17]
  Dividing ELISA pEC50 (μM) 2nd Expt.: 6.47
[1]; [18]
  Dividing ELISA pEC50 (μM) 3rd Expt.: 6.34
[1]; [19]
  Dividing ELISA pEC50 (μM) Mean: 6.38
[1]; [20]
  EC50: 0.43 µM
[1]; [21]
  EC50: 0.486 µM
[1]; [22]
  EC50: 0.34 µM
[1]; [23]
  EC50: 0.453 µM
[1]; [24]
  EC50: 0.426 µM
[13]
  EC50: > 32 µM
[14]
  metabolic stability (in words): excellent stability
N2a-cl3 cells
  EC50: > 32 µM
MDCK-MDR1 cells
  Permeability PA→B: 9.2 10^−6 cm/sec
  Permeability PB→A: 8.9 10^−6 cm/sec
[5]; […]
  Microsome stability T1/2: 69 min

## Cc1ccc(Nc2nc(-c3c(-c4ccccc4)noc3C)cs2)nc1 [compound 28, [4-(5-Methyl-3-phenylisoxazol-4-yl)-thiazol-2-yl]-(5-methylpyridin-2-yl)-amine]
[12]
  P-gp substrate status, absorptive vs secretory permeability: greater permeability in the absorptive direction
[1]; [16]
  Dividing ELISA pEC50 (μM) 1st Expt.: 4.52
[1]; [17]
  Dividing ELISA pEC50 (μM) 2nd Expt.: 4.82
[1]; [18]
  Dividing ELISA pEC50 (μM) 3rd Expt.: >4.5
[1]; [20]
  EC50: > 26 µM
[1]; [21]
  EC50: 30 µM
[1]; [22]
  EC50: 15.2 µM
[1]; [23]
  EC50: > 32 µM
[1]; [24]
  EC50: > 26 µM
[13]
  EC50: > 32 µM
[15]
  melting point: 267 to 269 °C
N2a-cl3 cells
  EC50: > 32 µM
MDCK-MDR1 cells
  Permeability PA→B: 11.2 10^−6 cm/sec
  Permeability PB→A: 8.6 10^−6 cm/sec
[5]; […]
  Microsome stability T1/2: 19 min
